From ChEMBL document CHEMBL1124001, “Synthesis and antileukemic activity of bis[[(carbamoyl)oxy]methyl]- substituted pyrrolo[2,1-a]isoquinolines, pyrrolo[1,2-a]quinolines, pyrrolo[2,1-a]isobenzazepines, and pyrrolo[1,2-a]benzazepines” (J Med Chem, 1988)

Columns and labels:
Mus musculus [1] = assay: Body weight change of test animals to that of control was determined after injection at 7.5 mg/kg intraperitoneally in CD2F1 mice; assay type: functional; conditions: route intraperitoneal
Mus musculus [2] = assay: Body weight change of test animals to that of control was determined after injection at 1.88 mg/kg intraperitoneally in CD2F1 mice; assay type: functional; conditions: route intraperitoneal
Mus musculus [3] = assay: Net log cell kill was determined after injecting 3.75 mg/kg intraperitoneally in CD2F1 mice; assay type: functional; conditions: route intraperitoneal
Mus musculus [4] = assay: Net log cell kill was determined after injecting 7.5 mg/kg intraperitoneally in CD2F1 mice; assay type: functional; conditions: route intraperitoneal
Mus musculus [5] = assay: Toxicity day survivors was determined by the ratio of animals survived to that of test animals at 15 mg/kg intraperitoneally in CD2F1 mice; 5/5; assay type: organism-based; parameters: dose 15 mg/kg, route intraperitoneal; conditions: in vivo, ip
Mus musculus [6] = assay: Body weight change of test animals to that of control was determined after injection at 15 mg/kg intraperitoneally in CD2F1 mice; assay type: functional; conditions: route intraperitoneal
Mus musculus [7] = assay: Body weight change of test animals to that of control was determined after injection at 60 mg/kg intraperitoneally in CD2F1 mice; assay type: functional; conditions: route intraperitoneal
Mus musculus [8] = assay: Ratio of treated to that of untreated tumor-bearing control animals at 1.88 mg/kg intraperitoneally in CD2F1 mice was determined; assay type: functional; conditions: route intraperitoneal
Mus musculus [9] = assay: Toxicity day survivors was determined by the ratio of animals survived to that of test animals at 7.5 mg/kg intraperitoneally in CD2F1 mice; 6/6; assay type: organism-based; parameters: dose 7.5 mg/kg, route intraperitoneal; conditions: in vivo, ip
Mus musculus [10] = assay: Body weight change of test animals to that of control was determined after injection at 3.75 mg/kg intraperitoneally in CD2F1 mice; assay type: functional; conditions: route intraperitoneal
Mus musculus [11] = assay: Ratio of treated to that of untreated tumor-bearing control animals at 15 mg/kg intraperitoneally in CD2F1 mice was determined; assay type: functional; conditions: route intraperitoneal
Mus musculus [12] = assay: Body weight change of test animals to that of control was determined after injection at 30 mg/kg intraperitoneally in CD2F1 mice; assay type: functional; conditions: route intraperitoneal
Mus musculus [13] = assay: Toxicity day survivors was determined by the ratio of animals survived to that of test animals at 3.75 mg/kg intraperitoneally in CD2F1 mice; 6/6; assay type: organism-based; parameters: dose 3.75 mg/kg, route intraperitoneal; conditions: in vivo, ip
Mus musculus [14] = assay: Net log cell kill was determined after injecting 1.88 mg/kg intraperitoneally in CD2F1 mice; assay type: functional; conditions: route intraperitoneal
Mus musculus [15] = assay: Ratio of treated to that of untreated tumor-bearing control animals at 3.75 mg/kg intraperitoneally in CD2F1 mice was determined; assay type: functional; conditions: route intraperitoneal
Mus musculus [16] = assay: Toxicity day survivors was determined by the ratio of animals survived to that of test animals at 30 mg/kg intraperitoneally in CD2F1 mice; 4/6; assay type: organism-based; parameters: dose 30 mg/kg, route intraperitoneal; conditions: in vivo, ip
Mus musculus [17] = assay: Ratio of treated to that of untreated tumor-bearing control animals at 7.5 mg/kg intraperitoneally in CD2F1 mice was determined; assay type: functional; conditions: route intraperitoneal
Mus musculus [18] = assay: Net log cell kill was determined after injecting 15 mg/kg intraperitoneally in CD2F1 mice; assay type: functional; conditions: route intraperitoneal
Mus musculus [19] = assay: Toxicity day survivors was determined by the ratio of animals survived to that of test animals at 60 mg/kg intraperitoneally in CD2F1 mice; 4/6; assay type: organism-based; parameters: dose 60 mg/kg, route intraperitoneal; conditions: in vivo, ip
Mus musculus [20] = assay: Toxicity day survivors was determined by the ratio of animals survived to that of test animals at 1.88 mg/kg intraperitoneally in CD2F1 mice; 6/6; assay type: organism-based; parameters: dose 1.88 mg/kg, route intraperitoneal; conditions: in vivo, ip
Mus musculus [21] = assay: Net log cell kill was determined after injecting 240 mg/kg intraperitoneally in CD2F1 mice; assay type: functional; conditions: route intraperitoneal
Mus musculus [22] = assay: Toxicity day survivors was determined by the ratio of animals survived to that of test animals at 30 mg/kg intraperitoneally in CD2F1 mice; 6/6; assay type: organism-based; parameters: dose 30 mg/kg, route intraperitoneal; conditions: in vivo, ip
Mus musculus [23] = assay: Ratio of treated to that of untreated tumor-bearing control animals at 240 mg/kg intraperitoneally in CD2F1 mice was determined; assay type: functional; conditions: route intraperitoneal
Mus musculus [24] = assay: Net log cell kill was determined after injecting 60 mg/kg intraperitoneally in CD2F1 mice; assay type: functional; conditions: route intraperitoneal
Mus musculus [25] = assay: Toxicity day survivors was determined by the ratio of animals survived to that of test animals at 60 mg/kg intraperitoneally in CD2F1 mice; 6/6; assay type: organism-based; parameters: dose 60 mg/kg, route intraperitoneal; conditions: in vivo, ip
Mus musculus [26] = assay: Ratio of treated to that of untreated tumor-bearing control animals at 30 mg/kg intraperitoneally in CD2F1 mice was determined; assay type: functional; conditions: route intraperitoneal
Mus musculus [27] = assay: Body weight change of test animals to that of control was determined after injection at 120 mg/kg intraperitoneally in CD2F1 mice; assay type: functional; conditions: route intraperitoneal
Mus musculus [28] = assay: Net log cell kill was determined after injecting 120 mg/kg intraperitoneally in CD2F1 mice; assay type: functional; conditions: route intraperitoneal
Mus musculus [29] = assay: Toxicity day survivors was determined by the ratio of animals survived to that of test animals at 240 mg/kg intraperitoneally in CD2F1 mice; 6/6; assay type: organism-based; parameters: dose 240 mg/kg, route intraperitoneal; conditions: in vivo, ip
Mus musculus [30] = assay: Body weight change of test animals to that of control was determined after injection at 240 mg/kg intraperitoneally in CD2F1 mice; assay type: functional; conditions: route intraperitoneal
Mus musculus [31] = assay: Toxicity day survivors was determined by the ratio of animals survived to that of test animals at 120 mg/kg intraperitoneally in CD2F1 mice; 6/6; assay type: organism-based; parameters: dose 120 mg/kg, route intraperitoneal; conditions: in vivo, ip
Mus musculus [32] = assay: Net log cell kill was determined after injecting 30 mg/kg intraperitoneally in CD2F1 mice; assay type: functional; conditions: route intraperitoneal
Mus musculus [33] = assay: Ratio of treated to that of untreated tumor-bearing control animals at 60 mg/kg intraperitoneally in CD2F1 mice was determined; assay type: functional; conditions: route intraperitoneal
Mus musculus [34] = assay: Ratio of treated to that of untreated tumor-bearing control animals at 120 mg/kg intraperitoneally in CD2F1 mice was determined; assay type: functional; conditions: route intraperitoneal

For `COc1ccc2c(c1)CCn1cc(COC(=O)NC(C)C)c(COC(=O)NC(C)C)c1-2`, the T-C (Mus musculus [1]) was -4.8 g, the T-C (Mus musculus [2]) was -1.8 g and the KE (Mus musculus [3]) was 3.46. It also gave a KE (Mus musculus [4]) of 5.83, a TDS (Mus musculus [5]) of 5 and a T-C (Mus musculus [6]) of -3 g. The T-C (Mus musculus [7]) was -4.6 g, the T/C (Mus musculus [8]) was 174% and the TDS (Mus musculus [9]) was 6. It also gave a T-C (Mus musculus [10]) of -3.4 g, a T/C (Mus musculus [11]) of 125% and a T-C (Mus musculus [12]) of -3.1 g. It also gave a TDS (Mus musculus [13]) of 6, a KE (Mus musculus [14]) of 2.18 and a T/C (Mus musculus [15]) of 194%. For the same compound, the TDS (Mus musculus [16]) was 4, the T/C (Mus musculus [17]) was 232% and the KE (Mus musculus [18]) was -1.07. The TDS (Mus musculus [19]) was 4 and the TDS (Mus musculus [20]) was 6.

`Cc1c(COC(=O)NC(C)C)c(COC(=O)NC(C)C)c2ccc3ccccc3n12` showed a KE (Mus musculus [21]) of -0.5, a TDS (Mus musculus [22]) of 6 and a T/C (Mus musculus [23]) of 129%. For the same compound, the KE (Mus musculus [24]) was 0.47, the TDS (Mus musculus [25]) was 6 and the T-C (Mus musculus [7]) was -1.1 g. The T/C (Mus musculus [26]) was 135%, the T-C (Mus musculus [27]) was -1.8 g and the KE (Mus musculus [28]) was -1.5. The TDS (Mus musculus [29]) was 6, the T-C (Mus musculus [12]) was -0.5 g and the T-C (Mus musculus [30]) was -3.5 g. For the same compound, the TDS (Mus musculus [31]) was 6, the KE (Mus musculus [32]) was -0.53 and the T/C (Mus musculus [33]) was 139%. It also gave a T/C (Mus musculus [34]) of 106%.
